From article PMC7583591 (Computational Biology and Chemistry, 2020)

Target: SARS-CoV-2 M^pro (Severe acute respiratory syndrome coronavirus 2, UniProt P0DTD1)
Assay: biochemical
Conditions: for inhibition at 50 µM: read-out: % Protease inhibition at 50 μM ligand concentration

Row | SMILES | IC50 [µM] | inhibition at 50 µM [%] | % Protease inhibition at 50 μM ligand concentration (50 μM) [%]
1 | Cc1cc(O)c2c(=O)c3c(O)cc(O)c4c5c(O)cc(O)c6c(=O)c7c(O)cc(C)c8c1c2c(c34)c(c78)c65 [Hypericin] | 63.6 ± 5.7 | 42.8 ± 8.2 | –
2 | C[S@@+]([O-])CCCCN=C=S [L-sulforaphane] | > 128 | 8.4 ± 2.7 | –
3 | Oc1ccc(/C=C/c2cc(O)cc(O)c2)cc1 [Resveratrol] | > 128 | 1.8 ± 0.9 | –
4 | O=C(Nc1ccccc1-c1cn2c(CN3CCNCC3)csc2n1)c1cnc2ccccc2n1 [SRT1720] | – | – | 9.3 ± 2.2
